Data from US9289496B2, “Lipid dipeptide and gel” (Nissan Chemical Industries, Ltd., priority 2008, dated 2016).
Residues, ends and D or L forms follow the SMILES beside them.

Assays:
[1] = Evaluation of gelation of lipid peptides with pure water; format: physicochemical
Procedure: Each of the lipid peptides synthesized in Examples 1, 6, 7, 8, and 10 was placed in a sample tube. Pure water (without metals and ions) was added so that a solution would have a lipid peptide concentration of 0.25 or 0.5% (w/v) (w means mass (g), and v means volume (mL)). The mixture was heated at 90° C. or more to dissolve the lipid peptide, and then allowed to cool.

[2] = Evaluation of gelation of lipid peptides with phosphate buffer; format: physicochemical
Procedure: Each of the lipid peptides synthesized in Examples 3 to 10 and Example 14 was placed in a sample tube. Each of three phosphate buffers (PBS) (pH=2.6, 7.4, or 10) was added so that a solution would have a lipid peptide concentration of 0.25 or 0.5% (w/v) (conditions A to F). Then, the mixture was heated at 90° C. or more to dissolve the lipid peptide, and then allowed to cool.

[3] = acidic region (pH=2.6), concentration 0.25%
[4] = acidic region (pH=2.6), concentration 0.5%
[5] = condition A: phosphate buffer pH = 2.6, 0.5% (w/v)
[6] = condition B: phosphate buffer pH = 2.6, 0.25% (w/v)
[7] = condition C: phosphate buffer pH-7.4, 0.5% (w/v)
[8] = condition D: phosphate buffer pH-7.4, 0.25% (w/v)
[9] = condition E: phosphate buffer pH = 10, 0.5% (w/v)

Row | Structure (SMILES) | Gelation ([1]; lipid peptide 0.25% (w/v)) | Gelation ([1]; lipid peptide 0.50% (w/v)) | Gel formation [2, 3] | Gel formation [2, 4] | Gel formation ([2]; basic region (pH=10), concentration 0.25%) | Gelation [2, 5] | Gelation [2, 6] | Gelation [2, 7] | Gelation [2, 8] | Gelation [2, 9] | Gelation ([2]; condition F: phosphate buffer pH = 10, 0.25% (w/v))
1 | CCCCCCCCCCCC(=O)NCC(=O)N[C@@H](Cc1c[nH]cn1)C(=O)O.O=C(O)C(F)(F)F [Example 6, N-Lauroyl-Gly-His.TFA Salt] (HELM PEPTIDE1{[CCCCCCCCCCCC(=O)[*:2]].G.H}$$$$V2.0) | ◯ | ◯ | formed gels | formed gels | formed a gel | ◯ | ◯ | ◯ | ◯ | ◯ | ◯
2 | CCCCCCCCCCCCCCCCCCCCCC(=O)NCC(=O)N[C@@H](Cc1c[nH]cn1)C(=O)O.O=C(O)C(F)(F)F [Example 7, N-Behenoyl-Gly-His.TFA Salt] | ◯ | ◯ |  | formed gels |  | ◯ |  | ◯ | ◯ | ◯ | 
3 | CCCCCCCCCCCCCC(=O)NCC(=O)N[C@@H](Cc1c[nH]cn1)C(=O)O.O=C(O)C(F)(F)F [Example 8, N-Myristoyl-Gly-His.TFA Salt] (HELM PEPTIDE1{[CCCCCCCCCCCCCC(=O)[*:2]].G.H}$$$$V2.0) | ◯ | ◯ | formed gels | formed gels |  | ◯ | ◯ | ◯ | ◯ | ◯ | 
4 | CCCCCCCCCCCCCCCC(=O)N[C@@H](C)C(=O)N[C@@H](Cc1c[nH]cn1)C(=O)O.O=C(O)C(F)(F)F [Example 10, N-Palmitoyl-Ala-His.TFA salt] (HELM PEPTIDE1{[CCCCCCCCCCCCCCCC(=O)[*:2]].A.H}$$$$V2.0) | ◯ | ◯ | formed gels | formed gels |  | ◯ | ◯ | ◯ | ◯ | ◯ | 
5 | CCCCCCCCCCCCCCCC(=O)N[C@H](C(=O)N[C@@H](Cc1c[nH]cn1)C(=O)O)C(C)C.O=C(O)C(F)(F)F [Example 11, N-Palmitoyl-Val-His.TFA Salt] (HELM PEPTIDE1{[CCCCCCCCCCCCCCCC(=O)[*:2]].V.H}$$$$V2.0) |  |  |  |  |  |  |  | ◯ | ◯ | ◯ | 
6 | CCCCCCCCCCCCCCCC(=O)N[C@@H](Cc1c[nH]cn1)C(=O)NCC(=O)O.O=C(O)C(F)(F)F [Example 14, N-Palmitoyl-His-Gly.TFA Salt] (HELM PEPTIDE1{[CCCCCCCCCCCCCCCC(=O)[*:2]].H.G}$$$$V2.0) |  |  |  |  |  |  |  | ◯ | ◯ | ◯ | 
